Experimental data published in patent publication US20150126464A1, “THERAPEUTIC DRUG AND THERAPEUTIC METHOD FOR NEUROLOGICAL DISEASES INCLUDING ALZHEIMER'S DISEASE ASSOCIATED WITH 1,25D3-MARRS” (priority 2013, published 2015).

Assays:
[1] = target: T1, 1,25D3-MARRS (Mus musculus, UniProt P27773); test: Identification of the target protein for diosgenin (thermolysin proteolysis of lysate, LC/MS/MS); type: binding; details: mouse cortical neuron lysate, band thicker than in vehicle-treated lysate
T1 construct: endogenous in cells; host or cells: mouse cortical neuron primary culture (ddY, E14), cell lysate
T1 sequence (P27773 25-505): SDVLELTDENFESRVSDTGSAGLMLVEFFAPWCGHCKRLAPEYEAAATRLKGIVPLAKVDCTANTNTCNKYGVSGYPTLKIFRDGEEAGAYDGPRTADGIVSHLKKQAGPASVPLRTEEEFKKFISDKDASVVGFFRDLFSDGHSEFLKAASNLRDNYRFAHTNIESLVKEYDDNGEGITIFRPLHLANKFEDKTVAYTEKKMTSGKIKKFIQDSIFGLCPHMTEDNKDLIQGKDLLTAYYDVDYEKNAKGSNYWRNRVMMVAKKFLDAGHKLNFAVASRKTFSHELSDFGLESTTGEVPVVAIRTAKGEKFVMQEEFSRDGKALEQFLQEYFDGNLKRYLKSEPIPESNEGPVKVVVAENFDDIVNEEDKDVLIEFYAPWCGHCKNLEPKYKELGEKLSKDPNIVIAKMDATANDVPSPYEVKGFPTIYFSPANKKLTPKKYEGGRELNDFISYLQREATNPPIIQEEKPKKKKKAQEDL
Procedure: A mouse cortical neuron primary culture (ddY, E14) was maintained for 24 hours without any drug treatment. The cells were lysed with M-PER (Thermo Scientific) supplemented with protease and phosphatase inhibitors. After centrifugation (20,000×g) for 15 minutes, the protein concentration of the lysates was determined using Quick Start (Bio-Rad Laboratories, Hercules, Calif., USA). The cell lysate (5.6 μg each) was added to 2 μL of a vehicle solution of 10 mM diosgenin and incubated at 4° C. for 30 minutes. The mixture was proteolyzed using 7.5 μg of thermolysin in a reaction buffer [50 mM Tris-HCl (pH 8.0), 50 mM NaCl, and 10 mM CaCl2] at room temperature for 10 minutes. To stop the proteolysis, 0.5 M EDTA (pH 8.0) was added to each sample at a ratio of 1:10. The samples were then mixed well and placed on ice. The reaction samples were electrophoresed using a 5 to 20% real gel plate (Bio Craft, Tokyo, Japan). The separated proteins were stained using a negative gel stain MS kit (Wako). The bands in the diosgenin-treated lysate that were thicker than those in the vehicle-treated lysate were cut out and prepared for mass spectrometry analysis. After alkylation using iodoacetamide and in-gel digestion by trypsin, the supernatants were analyzed by nano-LC/MS/MS using LTQ Orbitrap XL (ThermoFisher). […]

[2] = system: normal mice; test: Novel object recognition test in normal mice; type: in vivo, mouse
Procedure: (§1) Diosgenin (Wako Pure Chemical Industries, Ltd., Osaka, Japan) was dissolved in ethanol at 10 times the final concentration to give a stock solution, and the stock solution was diluted in a 5% aqueous solution of glucose to the final concentration. The diosgenin solution was intraperitoneally administered to normal mice (ddY mice, male, 6 weeks old) once a day (10 μmol/kg/day) for 5 or 6 days. One hour after the last administration, each mouse was housed in a separate open-field box made of polyvinyl chloride (33 cm×28 cm; height: 26.5 cm), habituated to the environment for 10 minutes, and used in the test.
Using the mice of Example 8 and Comparative Example 11, a novel object recognition test was performed to evaluate the object recognition memory. Testing was carried out in a dimly illuminated room (100 lux). The test was performed as described in Joyashiki, E. et sl., Int J Neurosci, 121, 181-190, 2011 and Tohda, C. et al., Int J Neurosci, 121, 641-648, 2011, written by the inventors and others, except that the time interval between a training session and a test session was 48 hours. As a locomotion index, the path of each mouse was tracked using a digital camera system. The distance each mouse traveled during the 10 minutes was analyzed as locomotion activity with EthoVision 3.0 (Noldus, Wageningen, The Netherlands).
The diosgenin solution was intraperitoneally administered to normal mice (C57BL/6, male, 8 weeks old) (100 μmol/kg/day) for 14 days. On the day after the 14th administration, the mice were used in the test.
Using the mice of Example 9 and Comparative Example 12, the novel object recognition test was performed. The test was performed under the conditions as described above.
Dioscin in an amount of 30 μmol/kg/day was orally administered to normal mice (ddY mice, male, 6 weeks old) for 4 days. Dioscin (Chromadex, Irvine, Calif., USA) was dissolved in ethanol at 10 times the final concentration to give a stock solution, and the stock solution was diluted in a 5% aqueous solution of glucose to the final concentration. […]

[3] = system: normal mice; test: Measurement of spontaneous motor activity; type: in vivo, mouse; details: normal ddY mice, diosgenin 10 μmol/kg/day i.p., vs vehicle
Procedure: as §1
The spontaneous motor activity was evaluated based on the distance each mouse traveled in an open field during 10 minutes.

spontaneous motor activity (distance traveled in an open field during 10 minutes) [3]: no significant difference
SMILES: C[C@@H]1CC[C@@]2(OC1)O[C@H]1C[C@H]3[C@@H]4CC=C5C[C@@H](O)CC[C@]5(C)[C@H]4CC[C@]3(C)[C@H]1[C@@H]2C [diosgenin]
direct target protein identified [1]: direct target protein of diosgenin was 1,25D3-MARRS | object recognition memory ([2]; normal C57BL/6 mice, diosgenin 100 μmol/kg/day i.p. 14 days): significantly improved | behavior index of exploratory behavior for the novel object ([2]; normal ddY mice, diosgenin 10 μmol/kg/day i.p. 5 or 6 days, 48 hours training-test interval): higher than 50%
